Measured values taken from patent US12660819B2, “Herbicidal derivatives” (SYNGENTA CROP PROTECTION AG, priority 2020, dated 2026).

How the values were obtained:
Type in all cases: in vivo
[1] = system: Abutilon theophrasti (ABUTH); test: Post-emergence Test (glasshouse, percentage damage to the plant); conditions: post-emergence spray, 1000 g/ha unless otherwise stated, evaluated after 13 days
Procedure, shortened: (§1)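 Seeds are sown in standard soil under controlled glasshouse conditions. The pots are then sprayed at 1000 g/ha, unless otherwise stated, with compound in acetone/water (50:50) containing 0.5% Tween 20. After 13 days further growth, percentage plant damage is scored from 1 (0-20%) to 5 (81-100%).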

[2] = system: Amaranthus retoflexus (AMARE); test: as above; conditions: post-emergence spray, 1000 g/ha unless otherwise stated, evaluated after 13 days
Procedure, shortened: as §1

[3] = system: Echinochloa crus-galli (ECHCG); test: as above; conditions: post-emergence spray, 1000 g/ha unless otherwise stated, evaluated after 13 days
Procedure, shortened: as §1

[4] = system: Ipomoea hederacea (IPOHE); test: as above; conditions: post-emergence spray, 1000 g/ha unless otherwise stated, evaluated after 13 days
Procedure, shortened: (§2)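 Damage was rated 13 days after treatment and expressed on a five-point scale: 5=81-100%, 4=61-80%, 3=41-60%, 2=21-40%, 1=0-20%. Spray was applied at 1000 g/ha unless otherwise stated, from acetone/water (50:50) with 0.5% Tween 20, to sown pots.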

Setaria faberi (SETFA) [5] = test: as above; conditions: post-emergence spray, 1000 g/ha unless otherwise stated, evaluated after 13 days
Procedure, shortened: as §2

Zea mays (ZEAMX) [6] = test: as above; conditions: post-emergence spray, 1000 g/ha unless otherwise stated, evaluated after 13 days
Procedure, shortened: as §2

[7] = system: Amaranthus retoflexus (AMARE); test: Pre-emergence Test (glasshouse, percentage damage to the plant); conditions: 1000 g/ha unless otherwise stated, five-point scale
Setaria faberi (SETFA) [8] = test: as above; conditions: 1000 g/ha unless otherwise stated, five-point scale
[9] = system: Echinochloa crus-galli (ECHCG); test: as above; conditions: 1000 g/ha unless otherwise stated, five-point scale
[10] = system: Ipomoea hederacea (IPOHE); test: as above; conditions: 1000 g/ha unless otherwise stated, five-point scale
[11] = system: Abutilon theophrasti (ABUTH); test: as above; conditions: 1000 g/ha unless otherwise stated, five-point scale
Zea mays (ZEAMX) [12] = test: as above; conditions: 1000 g/ha unless otherwise stated, five-point scale

Structure (SMILES)	Post-emergence Test ABUTH, percentage damage to the plant (five-point scale) [1]	Post-emergence Test AMARE, percentage damage to the plant (five-point scale) [2]	Post-emergence Test ECHCG, percentage damage to the plant (five-point scale) [3]	Post-emergence Test IPOHE, percentage damage to the plant (five-point scale) [4]	Post-emergence Test SETFA, percentage damage to the plant (five-point scale) (Setaria faberi (SETFA) [5])	Post-emergence Test ZEAMX, percentage damage to the plant (five-point scale) (Zea mays (ZEAMX) [6])	percentage damage to the plant, AMARE [7]	percentage damage to the plant, SETFA (Setaria faberi (SETFA) [8])	percentage damage to the plant, ECHCG [9]	percentage damage to the plant, IPOHE [10]	percentage damage to the plant, ABUTH [11]	percentage damage to the plant, ZEAMX (Zea mays (ZEAMX) [12])
CCn1c(C)c(-c2cnc3c(c2)OC(F)(F)O3)c(=O)c(C(=O)O)c1-c1ccc(Cl)c(Cl)c1 [Compound 60, 2-(3,4-dichlorophenyl)-5-(2,2-difluoro-[1,3]dioxolo[4,5-b]pyridin-6-yl)-1-ethyl-6-methyl-4-oxo-pyridine-3-carboxylic acid]	2 (2=21-40%)	2 (2=21-40%)	3 (3=41-60%)	2 (2=21-40%)	4 (4=61-80%)	1 (1=0-20%)	2 (2=21-40%)	4 (4=61-80%)	2 (2=21-40%)	2 (2=21-40%)	3 (3=41-60%)	1 (1=0-20%)
CCn1c(C)c(-c2cc(F)cc(F)c2)c(=O)c(C(=O)O)c1-c1ccc(Cl)c(Cl)c1 [Compound 79, 2-(3,4-dichlorophenyl)-5-(3,5-difluorophenyl)-1-ethyl-6-methyl-4-oxo-pyridine-3-carboxylic acid]	2 (2=21-40%)	1 (1=0-20%)	1 (1=0-20%)	2 (2=21-40%)	2 (2=21-40%)	1 (1=0-20%)	3 (3=41-60%)	5 (5=81-100%)	1 (1=0-20%)	2 (2=21-40%)	3 (3=41-60%)	2 (2=21-40%)
CCn1c(C)c(-c2cc(C)c(OC)c(C)c2)c(=O)c(C(=O)O)c1-c1ccc(Cl)c(Cl)c1 [Compound 71, 2-(3,4-dichlorophenyl)-1-ethyl-5-(4-methoxy-3,5-dimethyl-phenyl)-6-methyl-4-oxo-pyridine-3-carboxylic acid]	2 (2=21-40%)	1 (1=0-20%)	1 (1=0-20%)	1 (1=0-20%)	1 (1=0-20%)	1 (1=0-20%)	2 (2=21-40%)	2 (2=21-40%)	1 (1=0-20%)	1 (1=0-20%)	1 (1=0-20%)	1 (1=0-20%)
CCOC(=O)c1c(-c2ccc(F)c(F)c2)n(CC)c(C)c(-c2ccc(Cl)cc2)c1=O [Compound 152, ethyl 5-(4-chlorophenyl)-2-(3,4-difluorophenyl)-1-ethyl-6-methyl-4-oxo-pyridine-3-carboxylate]	0	0	0	0	0	0	0	0	0	0	0	0
CCn1c(C)c(-c2ccc(C(=O)N(C)C)cc2)c(=O)c(C(=O)O)c1-c1ccc(Cl)c(Cl)c1 [Compound 109, 2-(3,4-dichlorophenyl)-5-[4-(dimethylcarbamoyl)phenyl]-1-ethyl-6-methyl-4-oxo-pyridine-3-carboxylic acid]	3 (3=41-60%)	1 (1=0-20%)	2 (2=21-40%)	4 (4=61-80%)	3 (3=41-60%)	1 (1=0-20%)	1 (1=0-20%)	4 (4=61-80%)	1 (1=0-20%)	1 (1=0-20%)	1 (1=0-20%)	1 (1=0-20%)
CCn1c(C)c(-c2ccc(Cl)c(C(=O)NC3CC3)c2)c(=O)c(C(=O)O)c1-c1ccc(Cl)c(Cl)c1 [Compound 83, 5-[4-chloro-3-(cyclopropylcarbamoyl)phenyl]-2-(3,4-dichlorophenyl)-1-ethyl-6-methyl-4-oxo-pyridine-3-carboxylic acid]	2 (2=21-40%)	1 (1=0-20%)	1 (1=0-20%)	1 (1=0-20%)	2 (2=21-40%)	1 (1=0-20%)	1 (1=0-20%)	1 (1=0-20%)	1 (1=0-20%)	1 (1=0-20%)	1 (1=0-20%)	1 (1=0-20%)
CCOc1ccc(-c2c(C)n(CC)c(-c3ccc(Cl)c(Cl)c3)c(C(=O)O)c2=O)cc1 [Compound 96, 2-(3,4-dichlorophenyl)-5-(4-ethoxyphenyl)-1-ethyl-6-methyl-4-oxo-pyridine-3-carboxylic acid]	4 (4=61-80%)	1 (1=0-20%)	2 (2=21-40%)	3 (3=41-60%)	3 (3=41-60%)	2 (2=21-40%)	1 (1=0-20%)	2 (2=21-40%)	1 (1=0-20%)	1 (1=0-20%)	1 (1=0-20%)	1 (1=0-20%)
